Data set [1] is described as follows: Half life in po dosed human plasma. Format: ADME, organism-based.
The test system of another data set is A549. Kind of data set: Growth inhibition of human A549 cells by SRB assay. The format is functional. A general note: The SRB assay estimates cell density from bound dye.
The nature of data set [2]: Half life of compound. The format is physicochemical.
The test system of data set [3] is Rattus norvegicus. The data set is described as follows: Anti-inflammatory activity against carrageenan-induced paw edema in Albino rat assessed as inhibition of paw edema at 50 mg/kg, po relative to control. The format is functional. The arrangement: scale not given: the % may be the effect or the level left.
In data set [4] the test system is Rattus norvegicus. Kind of data set: Anti-inflammatory activity against carrageenan-induced paw edema in Wistar rat assessed as inhibition of paw edema at 20 mg/kg, po by H and E staining based analysis relative to control. Set-up: scale not given: the % may be the effect or the level left. The format is functional. (The carrageenan paw model is a standard test of acute inflammation.)

Data set [5] relates to MCF7. Kind of data set: Cytotoxicity against human MCF7 cells assessed as reduction in cell viability. Format: functional, cell-based.
The next data set can be described thus: clinical. To be noted: human.
The target of data set [6] is Amine oxidase [flavin-containing] B (Homo sapiens, UniProt P27338). The data set is described as follows: Inhibition of human recombinant MAO-B extracted from baculovirus infected in BTI-TN-5B1-4 insect cells incubated for 20 mins by Amplex Red reagent based fluorescence analysis. Format: cell-based.
Data set [7] concerns HepG2. The data set is described as follows: Antiproliferative activity against human HepG2 cells assessed as reduction in cell growth measured for 96 hrs by Neutral red uptake assay. The format is functional, cell-based. To be noted: HepG2, 96 h.
Data set [8] is described as follows: Terminal half life in human. Format: ADME. To be noted: read-out: beta t1/2 (converted).
Data set [9] in a line: Elimination half life in human at 0.8 mg/kg, sc. The format is ADME, organism-based. Particulars: in vivo, read-out: LambdaZ (converted).
Data set [10] can be described thus: Half life in human at 15 mg/kg, po. Particulars: in vivo. Format: ADME, organism-based.
The next data set concerns HCT-116. The data set is described as follows: Cytotoxicity against human HCT-116 cells assessed as reduction in cell growth incubated for 24 hrs by MTT assay. Format: functional, cell-based. To be noted: HCT-116, 24 h.
The next data set deals with SF-295. The data set is described as follows: Cytotoxicity against human SF-295 cells assessed as reduction in cell growth incubated for 24 hrs by MTT assay. Format: functional, cell-based. Particulars: SF-295, 24 h.
For a further data set, the system named is HL-60. Kind of data set: Cytotoxicity against human HL-60 cells assessed as reduction in cell growth incubated for 24 hrs by MTT assay. Particulars: HL-60, 24 h. The format is functional, cell-based.
The test system of another data set is OVCAR-8. The data set is described as follows: Cytotoxicity against human OVCAR-8 cells assessed as reduction in cell growth incubated for 24 hrs by MTT assay. Format: functional, cell-based. Particulars: OVCAR-8, 24 h. A general note: Tetrazolium assays rely on reduction of a dye to a coloured formazan, in cell work by metabolically active cells.
A short description of data set [11]: Terminal half life in human plasma. Particulars: read-out: beta t1/2 (converted). Format: ADME, cell-free.
Data set [12] deals with T1, Acetylcholinesterase (Homo sapiens, UniProt P22303). The data set is described as follows: Inhibition of AChE (unknown origin) using acetylthiocholine iodide as substrate by Ellman's spectrophotometric analysis.
The subject of data set [13] is Bacillus subtilis. Kind of data set: Antibacterial activity against Bacillus subtilis ATCC 6633 assessed as zone of inhibition. Format: functional.
Data set [14] concerns Staphylococcus aureus. Kind of data set: Antibacterial activity against Staphylococcus aureus assessed as zone of inhibition at 100 ug/ml by cup-plate agar diffusion method. Format: functional. To be noted: read-out: IZ.
The subject of a further data set is Salmonella paratyphi. Kind of data set: […] activity against Salmonella enterica subsp. enterica serovar Paratyphi A assessed as zone of inhibition at 100 ug/ml by cup-plate agar diffusion method. Format: functional. To be noted: read-out: IZ.
The subject of a further data set is Aspergillus niger. Kind of data set: Antifungal activity against Aspergillus niger assessed as diameter of zone of inhibition at 100 ug/ml by cup-plate agar diffusion method. The format is functional. To be noted: read-out: IZ.
Data set [15] concerns the target T1, Acetylcholinesterase. Kind of data set: Inhibition of AChE (unknown origin).
The target of another data set is Cholinesterase (Homo sapiens, UniProt P06276). The data set is described as follows: Inhibition of BChE (unknown origin).
The subject of data set [16] is Streptococcus pneumoniae. The data set is described as follows: Antimicrobial activity against Streptococcus pneumoniae assessed as diameter of zone of inhibition by agar diffusion method. Format: functional.
Data set [17] relates to Bacillus subtilis. Kind of data set: Antimicrobial activity against Bacillus subtilis assessed as diameter of zone of inhibition by agar diffusion method. Format: functional.
A short description of data set [18]: Half life in human at 0.7 mg/kg, po. Particulars: in vivo.
Another data set deals with Beta-secretase 1 (Homo sapiens, UniProt P56817). The data set is described as follows: Inhibition of human recombinant BACE1 expressed in HEK293 cells by FRET assay. Format: cell-based.
The subject of another data set is Escherichia coli. Kind of data set: Antimicrobial activity against Escherichia coli assessed as diameter of zone of inhibition. The format is functional.
The test system of another data set is DLD-1. The data set is described as follows: Cytotoxicity against human DLD-1 cells assessed as reduction in cell growth incubated for 24 hrs by SRB assay. The format is functional, cell-based. To be noted: DLD-1, 24 h.
The next data set concerns HA22T cell line. The data set is described as follows: Cytotoxicity against human HA22T cell line assessed as reduction in cell growth incubated for 24 hrs by SRB assay. The format is functional, cell-based.
Data set [19] concerns HepG2. Kind of data set: Cytotoxicity against human HepG2 cells assessed as reduction in cell growth incubated for 24 hrs by SRB assay. Format: functional, cell-based. To be noted: HepG2, 24 h.
In another data set the test system is NUGC-3. The data set is described as follows: Cytotoxicity against human NUGC-3 cells assessed as reduction in cell growth incubated for 24 hrs by SRB assay. Format: functional, cell-based. Particulars: NUGC-3, 24 h.
The subject of data set [20] is MCF7. Kind of data set: Cytotoxicity against human MCF7 cells assessed as reduction in cell growth incubated for 24 hrs by SRB assay. The format is functional, cell-based. To be noted: MCF7, 24 h.
Data set [21] is described as follows: Cytotoxicity against human WI-38 cells assessed as reduction in cell growth incubated for 24 hrs by SRB assay. Format: toxicity, cell-based.
The next data set has as its system HONE1 cell line. Kind of data set: Cytotoxicity against human HONE1 cell line assessed as reduction in cell growth incubated for 24 hrs by SRB assay. Format: toxicity, cell-based. Particulars: HONE1, 24 h.
Data set [22] can be described thus: Terminal half life in human at 2.5 mg/kg, po. Format: ADME, organism-based. To be noted: in vivo, read-out: beta t1/2 (converted).
In a further data set the test system is Penicillium chrysogenum. The data set is described as follows: Antifungal activity against Penicillium chrysogenum assessed as diameter of zone of inhibition at 100 ug/ml by cup-plate agar diffusion method. Format: functional. To be noted: read-out: IZ.
In another data set the test system is SMMC-7721. The data set is described as follows: cells. Particulars: Homo sapiens, SMMC-7721, 72 h.
Data set [23] concerns Streptococcus pneumoniae. Kind of data set: Antimicrobial activity against Streptococcus pneumoniae assessed as reduction in cell growth by XTT assay. Format: functional, organism-based.
For data set [24], the system named is Staphylococcus aureus. Kind of data set: Antimicrobial activity against Staphylococcus aureus assessed as reduction in cell growth by XTT assay. The format is functional, organism-based.
The next data set deals with MIA PaCa-2. The data set is described as follows: Cytotoxicity against human MIA PaCa-2 cells. The format is functional, cell-based.
A short description of data set [25]: Inhibition of EGFR2 (unknown origin). Set-up: species or system Homo sapiens.
The nature of data set [26]: Half life in human at 6 mg/kg. Format: ADME, organism-based. Particulars: in vivo.

SMILES strings stand for the structures. Converted amounts (≈) assume the structure as drawn.

T1 sequence (P22303 whole entry): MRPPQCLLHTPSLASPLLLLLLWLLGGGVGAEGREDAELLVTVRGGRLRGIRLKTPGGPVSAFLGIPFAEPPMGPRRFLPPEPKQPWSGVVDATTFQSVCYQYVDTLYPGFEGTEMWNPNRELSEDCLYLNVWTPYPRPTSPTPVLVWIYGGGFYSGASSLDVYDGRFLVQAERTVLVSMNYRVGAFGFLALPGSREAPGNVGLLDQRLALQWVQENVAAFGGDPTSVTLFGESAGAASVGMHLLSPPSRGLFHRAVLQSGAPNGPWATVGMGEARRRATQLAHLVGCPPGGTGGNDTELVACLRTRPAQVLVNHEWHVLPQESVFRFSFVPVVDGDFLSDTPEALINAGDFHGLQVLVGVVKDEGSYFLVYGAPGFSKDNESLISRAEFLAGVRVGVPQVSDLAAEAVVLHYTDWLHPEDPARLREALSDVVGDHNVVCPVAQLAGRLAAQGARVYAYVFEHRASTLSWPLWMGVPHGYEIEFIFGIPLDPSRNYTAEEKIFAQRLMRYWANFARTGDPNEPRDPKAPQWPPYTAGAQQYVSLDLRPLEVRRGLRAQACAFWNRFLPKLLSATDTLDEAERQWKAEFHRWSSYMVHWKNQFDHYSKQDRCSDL
Amine oxidase [flavin-containing] B, sequence (P27338 whole entry): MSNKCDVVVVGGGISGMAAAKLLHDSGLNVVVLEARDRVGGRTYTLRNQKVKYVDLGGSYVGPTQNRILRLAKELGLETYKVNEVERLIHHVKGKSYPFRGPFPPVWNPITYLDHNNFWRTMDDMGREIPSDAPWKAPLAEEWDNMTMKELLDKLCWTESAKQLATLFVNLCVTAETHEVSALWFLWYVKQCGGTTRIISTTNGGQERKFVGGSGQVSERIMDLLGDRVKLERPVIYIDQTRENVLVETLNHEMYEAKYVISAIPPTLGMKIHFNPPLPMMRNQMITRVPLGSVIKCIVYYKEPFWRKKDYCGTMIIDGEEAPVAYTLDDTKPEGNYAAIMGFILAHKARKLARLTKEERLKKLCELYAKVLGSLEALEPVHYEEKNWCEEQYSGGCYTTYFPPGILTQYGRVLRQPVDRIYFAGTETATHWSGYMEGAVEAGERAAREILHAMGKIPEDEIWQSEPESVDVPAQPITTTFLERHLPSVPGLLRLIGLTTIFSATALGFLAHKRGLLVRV
Beta-secretase 1, sequence (P56817 whole entry): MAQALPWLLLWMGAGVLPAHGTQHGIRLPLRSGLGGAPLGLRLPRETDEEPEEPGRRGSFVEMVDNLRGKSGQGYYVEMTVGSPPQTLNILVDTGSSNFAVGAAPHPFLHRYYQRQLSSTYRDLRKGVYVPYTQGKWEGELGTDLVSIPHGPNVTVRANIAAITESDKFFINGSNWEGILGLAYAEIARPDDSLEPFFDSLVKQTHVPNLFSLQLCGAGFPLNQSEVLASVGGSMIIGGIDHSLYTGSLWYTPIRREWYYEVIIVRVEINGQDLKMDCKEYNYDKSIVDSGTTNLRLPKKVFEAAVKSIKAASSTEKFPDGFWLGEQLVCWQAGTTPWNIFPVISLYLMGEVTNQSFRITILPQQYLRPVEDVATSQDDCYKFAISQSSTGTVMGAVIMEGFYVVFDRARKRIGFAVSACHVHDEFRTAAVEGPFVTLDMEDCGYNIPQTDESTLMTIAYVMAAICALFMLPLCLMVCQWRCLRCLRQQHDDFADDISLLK
Cholinesterase, sequence (P06276 whole entry, the tested form may be a part): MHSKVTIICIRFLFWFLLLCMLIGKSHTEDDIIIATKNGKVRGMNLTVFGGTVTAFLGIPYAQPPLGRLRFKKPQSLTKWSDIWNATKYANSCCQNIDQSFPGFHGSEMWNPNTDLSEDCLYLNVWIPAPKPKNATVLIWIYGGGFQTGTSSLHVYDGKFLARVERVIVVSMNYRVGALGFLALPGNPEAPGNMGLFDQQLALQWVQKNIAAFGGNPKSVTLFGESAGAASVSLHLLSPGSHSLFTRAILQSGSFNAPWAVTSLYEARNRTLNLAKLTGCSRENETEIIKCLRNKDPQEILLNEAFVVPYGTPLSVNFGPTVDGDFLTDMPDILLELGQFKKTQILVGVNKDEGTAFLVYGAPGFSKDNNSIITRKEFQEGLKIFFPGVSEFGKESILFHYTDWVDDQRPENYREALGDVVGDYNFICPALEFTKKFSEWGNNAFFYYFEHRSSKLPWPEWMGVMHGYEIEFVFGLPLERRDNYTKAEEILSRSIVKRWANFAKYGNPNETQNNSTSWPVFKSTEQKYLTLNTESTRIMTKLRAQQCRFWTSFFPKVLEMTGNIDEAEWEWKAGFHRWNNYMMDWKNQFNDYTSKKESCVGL
Description for SMMC-7721: Antiproliferative activity against human SMMC-7721 cells assessed as reduction in cell viability measured for 72 hrs by MTT assay

Regarding `CN1CCC(=C2c3ccccc3CC(=O)c3sccc32)CC1` [KETOTIFEN], the half-life in data set [1] was 3 h.

As to `CCOC(=O)c1c(/N=C/c2ccc(Br)cc2)sc2c1CCCC2`, the GI50 in the data set on A549 was 8040 nM.

As to `CCN[C@H]1C[C@H](C)S(=O)(=O)c2sc(S(N)(=O)=O)cc21` [DORZOLAMIDE], the t1/2 in [2] came out at 4 months. For `CC(=O)c1c(Nc2ccc(C)cc2)sc(-c2nc3ccccc3c(=O)n2-c2ccc(Cl)cc2)c1C`, the results for the Activity in the data set with Rattus norvegicus [3] and in the data set on Rattus norvegicus [4] were 58.6% and 48.94%, respectively. For the compound `O=C1S/C(=C\c2cccc(Cl)c2Cl)C(=O)N1Cc1nnc(-c2cccs2)o1`, the IC50 in the data set on MCF7 [5] is 4.83 µg/mL (≈ 11 µM). For the compound `Clc1ccccc1CN1CCc2sccc2C1` [TICLOPIDINE], the half-life in the data set “clinical” is 7.9 h. As for `O=c1oc2cc(O)ccc2cc1-c1cc(Br)cs1`, the IC50 in data set [6] is 140 nM. Take `COc1ccc(C2=NNC(=O)c3c(sc(C(N)=O)c3C)N2)cc1`: the IC50 with HepG2 [7] came out at 4.37 µg/mL (≈ 13.2 µM). For the compound `O=C(NC[C@H]1CN(c2ccc(N3CCOCC3=O)cc2)C(=O)O1)c1ccc(Cl)s1` [RIVAROXABAN], the half-life in data set [8] is 5 h. Take `NC(N)=NCCC[C@@H](N)C(=O)N[C@@H](CCCN=C(N)N)C(=O)N1CCC[C@H]1C(=O)N1C[C@H](O)C[C@H]1C(=O)NCC(=O)N[C@@H](Cc1cccs1)C(=O)N[C@@H](CO)C(=O)N1Cc2ccccc2C[C@@H]1C(=O)N1[C@H](C(=O)N[C@@H](CCCN=C(N)N)C(=O)O)C[C@@H]2CCCC[C@@H]21` [ICATIBANT]: in data set [9], the half-life is 1.4 h.

As for `Cc1cc2c(s1)Nc1ccccc1N=C2N1CCN(C)CC1` [OLANZAPINE], in [10], the half-life is 21 h. In the case of `COc1cccc(/C=N/NC(=O)c2cccs2)c1O`, the IC50 in the data set with HCT-116, with SF-295, in the data set with HL-60 and in the data set with OVCAR-8 was 820 nM throughout. On to `CCCN(CCc1cccs1)[C@H]1CCc2c(O)cccc2C1` [ROTIGOTINE], for which the half-life in data set [11] is 7 h.

Turning to `FC(F)(F)c1cccc(-c2cc(-c3cccs3)n(-c3ccc(Br)cc3)n2)c1`, it took 0.48 nM to reach half-maximal inhibition against Acetylcholinesterase [12] (IC50).

Take `Cc1cc2ccc(O)cc2n(NC(=O)c2sc3cc(F)ccc3c2N)c1=O`: the “inhibition zone (IZ)” value with Bacillus subtilis [13] is 25 mm. Besides, the zone of inhibition at 100 µg/mL with Staphylococcus aureus [14] was determined as 23 mm; in the data set with Salmonella paratyphi, 22 mm; in the data set with Aspergillus niger it was 26 mm. In the case of `O=C(NNC(=S)Nc1ccccc1[N+](=O)[O-])c1sccc1Cl`, the IC50 came to 400 nM at Acetylcholinesterase [15] and 1900 nM on Cholinesterase.

Take `CCOC(=O)c1c(Nc2ccccc2)sc(C2=CN3NCC=C3N2)c1-c1ccccc1`: the “inhibition zone (IZ)” value with Streptococcus pneumoniae [16] came out at 12.3 mm; with Bacillus subtilis [17], 12.7 mm. In turn, `COC(=O)[C@H](c1ccccc1Cl)N1CCc2sccc2C1` [CLOPIDOGREL] showed a half-life in [18] of 6 h. For `COC(=O)c1cc(C)cc2sc3cccc(OC)c3c12`, at Beta-secretase 1, the IC50 stood at 600 nM. On to `NC(=S)N/N=C(\C=C\c1ccc(Cl)cc1Cl)c1cccs1`, for which, in the data set on Escherichia coli, the “inhibition zone (IZ)” value was 15 mm.

For the compound `N#CC(C#N)=NNc1sc2c(c1C1=NC(=O)C(Cc3ccc(Cl)cc3)S1)CCCC2` (centres undefined), the IC50 in the data set on DLD-1, with HA22T cell line, in the data set on HepG2 [19], in the data set on NUGC-3, with MCF7 [20] and in the data set on HONE1 cell line was 59 nM each time. For the same compound, the IC50 at 24 h in [21] is 59 nM. For `CCCCc1ncc(/C=C(\Cc2cccs2)C(=O)O)n1Cc1ccc(C(=O)O)cc1` [EPROSARTAN], in data set [22], the half-life was 5 h.

With `NC1=C(C(=O)Nn2c(=O)cc(-c3ccccc3)c3ccc(O)cc32)SCC1`, in the data set on Penicillium chrysogenum, the zone of inhibition at 100 µg/mL is 27 mm. Take `O=C(Nc1ccsc1C(=O)N/N=C/c1ccc(F)cc1)c1ccc(Cl)cc1Cl`: the IC50 with SMMC-7721 turned out to be 320 nM. As to `CCOC(=O)c1c(Nc2ccccc2)sc(Cc2ccc(-n3cnnn3)cc2)c1N`, the IC50 came out at 9.83 µg/mL (≈ 23.4 µM) in the data set with Streptococcus pneumoniae [23] and 7.62 µg/mL (≈ 18.1 µM) in the data set on Staphylococcus aureus [24]. `CN1CCN(CC(=O)Nc2sc3c(c2C#N)CCC(C(C)(C)C)C3)CC1` (centres undefined): the IC50 in the data set on MIA PaCa-2 turned out to be 13400 nM; in data set [25], 680 nM. The compound `CCN[C@H]1CN(CCCOC)S(=O)(=O)c2sc(S(N)(=O)=O)cc21` [BRINZOLAMIDE] showed a half-life in [26] of 111 h.

Broadly, the GI50 is the concentration that inhibits growth by half. The IC50 is the concentration needed to halve the response being measured.

These data come from ChEMBL document CHEMBL6182828, “Medicinal chemistry-based perspectives on thiophene and its derivatives: exploring structural insights to discover plausible druggable leads” (RSC Med Chem, 2025).
